Source: patent publication US12527886B2, “Radiopharmaceuticals and composition for thrombus imaging” (THE ASAN FOUNDATION, priority 2020, dated 2026)

Assay: Stability of Tc-99m labeled compound, labeling purity by HPLC
Format: physicochemical
Conditions: 99mTc-labeled, cysteine and VB1, until 4 hours (Table 11)
Protocol: 2 mL of Tc-99m was added dropwise to a lyophilized vial including 0.1 mg of GP-104, 15 μg of SnCl2, and 10 μg of cysteine, the vial was allowed to stand at room temperature for 10 minutes, and the reaction was terminated by adjusting pH to 7 using a NaOH solution. Labeling purity was confirmed to be 93.21% by HPLC (analysis conditions: Luna C18 250×4.6 mm, phosphate buffer:acetonitrile (100:0, 0 to 5 minutes; 80:20, 5 to 10 minutes; 80:20, 17 minutes; 100:0, 17.1 minutes). 100:0. 20 min), 1.0 mL/min, UV=280 nm).
In order to confirm the effect of cysteine addition after the reaction, the following experiment was performed: 0.1 mg of GP-104 was dissolved in water for injection, the pH was adjusted to about 3.5 when 10 μL of SnCl2 (1.5 mg/mL) and 2 mL of Tc-99m were added thereto, and the resulting mixture was allowed to stand at room temperature for 10 minutes. The reaction was terminated by adjusting the pH to 7 using a NaOH solution and 10 μL of cysteine (1.0 mg/mL). Labeling purity was confirmed to be 91.4% using HPLC in the same manner as in Example 2-7.
After 0.1 mg of GP-104 was dissolved in water for injection, pH was adjusted to about 3.5 and the resulting solution was allowed to stand at room temperature for 10 minutes when 10 μL of SnCl2 (1.5 mg/mL), 10 μL of cysteine (1.0 mg/mL) and 2 mL of Tc-99m were added thereto, and the reaction was terminated by adjusting the pH to 7 using a NaOH solution. Labeling purity was confirmed to be 94.84% using HPLC in the same manner as in Example 2-7.
HCl and NaOH was additionally added dropwise to the solution of Example 2-8 to perform a stability evaluation by adjusting the final pH of the solution to acidic (pH 5.5) and basic (pH 8.5) conditions, and labeling purity was confirmed using HPLC in the same manner as in Example 2-7.
HCl and NaOH was additionally added dropwise to the solution of Example 2-9 to perform a stability evaluation by adjusting the final pH of the solution to acidic (pH 5.5) and basic (pH 8.5) conditions, and labeling purity was confirmed using HPLC in the same manner as in Example 2-7.
HCl and NaOH was additionally added dropwise to the solution of Example 2-10 to perform a stability evaluation by adjusting the final pH of the solution to acidic (pH 5.5) and basic (pH 8.5) conditions, and labeling purity was confirmed using HPLC in the same manner as in Example 2-7.
0.1 mg of GP-105 was dissolved in water for injection, the pH was adjusted to about 3.5 when 10 μL of SnCl2 (1.5 mg/mL) and 2 mL of Tc-99m were added thereto, and the resulting mixture was allowed to stand at room temperature for 10 minutes. The reaction was terminated by adjusting the pH to 7 using a NaOH solution and 10 μL of cysteine (1.0 mg/mL). Labeling purity was confirmed to be 98.1% using HPLC in the same manner as in Example 2-7.
HCl and NaOH was additionally added dropwise to the solution of Example 2-12 to perform a stability evaluation by adjusting the final pH of the solution to acidic (pH 5.5) and basic (pH 8.5) conditions, and labeling purity was confirmed using HPLC in the same manner as in Example 2-7.
HCl and NaOH was additionally added dropwise to the solution of Example 2-13 to perform a stability evaluation by adjusting the final pH of the solution to acidic (pH 5.5) and basic (pH 8.5) conditions, and labeling purity was confirmed using HPLC in the same manner as in Example 2-7.
HCl and NaOH was additionally added dropwise to the solution of Example 2-14 to perform a stability evaluation by adjusting the final pH of the solution to acidic (pH 5.5) and basic (pH 8.5) conditions, and labeling purity was confirmed using HPLC in the same manner as in Example 2-7.

radiochemical purity (acidic conditions): ≥ 98% | radiochemical purity (basic conditions): ≥ 90% | radiochemical purity (pH of 7): ≥ 94%
Structure (SMILES): O=C(O)C[C@H](NC(=O)[C@@H]1CCCN(C(=O)CCC2CCNCC2)C1)c1cncc(OCCNC(=O)CN(CC(=O)O)CC(=O)O)c1 [GP-105, 2,2′-((2-((2-((5-((S)-2-carboxy-1-((R)-1-(3-(piperidin-4-yl)propanoyl)piperidine-3-carboxamido)ethyl)pyridin-3-yl)oxy)ethyl)amino)-2-oxoethyl)azanediyl)diacetic acid]
